ChEMBL document CHEMBL1201862, “PubChem BioAssay data set” (2004)
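Tested at 5 concentrations; 48 h exposure; 96-well plates; endpoints linearly interpolated, else capped at highest concentration. GI50 is the concentration that inhibits growth by half.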 The source made the active and inactive calls. No stated cut-off is given here; in the data, active = GI50 up to about 1.1 µM and inactive = higher.

Experiments:
Experiment in all cases: NCI-60 cell line screen, 48 h
IGROV-1 = system: IGROV-1
MOLT-4 = system: MOLT-4
SK-MEL-5 = system: SK-MEL-5
OVCAR-4 = system: OVCAR-4
PC-3 = system: PC-3
MCF7 = system: MCF7
COLO 205 = system: COLO 205
M14 = system: M14
SN12C = system: SN12C
786-0 = system: 786-0
NCI-H460 = system: NCI-H460
HOP-62 = system: HOP-62
EKVX = system: EKVX
CAKI-1 = system: CAKI-1
Hs-578T = system: Hs-578T
U-251 = system: U-251
KM12 = system: KM12
A498 = system: A498
HOP-92 = system: HOP-92

Measured: GI50

COc1ccc(NC2CC(C)N(C(=O)c3ccccc3)O2)cc1 (stereo unspecified)
inactive: IGROV-1 > 10 µM | MOLT-4 > 10 µM | SK-MEL-5 > 10 µM | OVCAR-4 > 10 µM | PC-3 > 10 µM | MCF7 > 10 µM | COLO 205 > 10 µM | M14 > 10 µM | SN12C > 10 µM | 786-0 > 10 µM | NCI-H460 > 10 µM | HOP-62 > 10 µM | EKVX > 10 µM | CAKI-1 > 10 µM | Hs-578T > 10 µM

COc1ccc(N2C(=O)C3c4[nH]c5ccccc5c4C4CCCCCCCCCC4C3C2=O)cc1 (stereo unspecified)
inactive: IGROV-1 > 10 µM | MOLT-4 > 10 µM | SK-MEL-5 > 10 µM | OVCAR-4 > 10 µM | PC-3 > 10 µM | MCF7 > 10 µM | COLO 205 > 10 µM | M14 > 10 µM | SN12C > 10 µM | U-251 > 10 µM | NCI-H460 > 10 µM | KM12 > 10 µM | HOP-62 > 10 µM | EKVX > 10 µM | CAKI-1 > 10 µM | A498 > 10 µM | Hs-578T > 10 µM

O=C1N(Cc2ccccc2)C2CSCC2N1Cc1ccccc1 (stereo unspecified)
inactive: IGROV-1 24.8 µM | HOP-92 23 µM | MOLT-4 37.5 µM | SK-MEL-5 15.4 µM | OVCAR-4 69.2 µM | PC-3 29.6 µM | MCF7 31.4 µM | COLO 205 16.8 µM | M14 10.5 µM | SN12C 33.7 µM | U-251 35.3 µM | NCI-H460 18.3 µM | KM12 23.8 µM | HOP-62 1.85 µM | EKVX 21.1 µM | CAKI-1 30.8 µM | Hs-578T 18.6 µM

COc1cc(/C=N/n2c(Cc3ccc(Cl)cc3)n[nH]c2=O)cc(OC)c1OC
inactive: MOLT-4 > 100 µM | OVCAR-4 > 100 µM | PC-3 > 100 µM | MCF7 > 100 µM | COLO 205 > 100 µM | M14 > 100 µM | SN12C > 100 µM | 786-0 > 100 µM | U-251 > 100 µM | NCI-H460 33.5 µM | KM12 50 µM | HOP-62 37.6 µM | EKVX > 100 µM | CAKI-1 > 100 µM | A498 > 100 µM | Hs-578T 1.32 µM

O=C1C(Cl)=C(Cl)C(=O)C(CCNc2nccs2)=C1Cl
inactive: IGROV-1 14.8 µM | HOP-92 22.1 µM | MOLT-4 51.4 µM | SK-MEL-5 19.5 µM | OVCAR-4 > 100 µM | PC-3 18.5 µM | MCF7 33 µM | COLO 205 32.8 µM | M14 20.2 µM | SN12C 29.3 µM | 786-0 23.3 µM | U-251 36.3 µM | NCI-H460 > 100 µM | KM12 32.7 µM | HOP-62 > 100 µM | EKVX 24.5 µM | CAKI-1 19.3 µM | Hs-578T 33.5 µM

O=C(NC1CCC(=O)N1C(=O)OCc1ccccc1)OCc1ccccc1 (stereo unspecified)
inactive: IGROV-1 > 100 µM | HOP-92 > 100 µM | MOLT-4 > 100 µM | SK-MEL-5 > 100 µM | PC-3 > 100 µM | MCF7 > 100 µM | COLO 205 > 100 µM | M14 > 100 µM | SN12C > 100 µM | 786-0 > 100 µM | U-251 > 100 µM | NCI-H460 > 100 µM | KM12 > 100 µM | HOP-62 > 100 µM | CAKI-1 > 100 µM | Hs-578T > 100 µM

Cn1c(NN)nc(-c2ccc([N+](=O)[O-])cc2)c(C#N)c1=O
inactive: IGROV-1 18.5 µM | SK-MEL-5 4.25 µM | OVCAR-4 15.6 µM | PC-3 15.3 µM | MCF7 16.6 µM | COLO 205 20 µM | M14 12.5 µM | SN12C 15.6 µM | 786-0 14.2 µM | U-251 17.1 µM | NCI-H460 17.3 µM | KM12 16.3 µM | HOP-62 14.1 µM | EKVX 15.8 µM | CAKI-1 26.2 µM | Hs-578T 14.5 µM

CCOC(=O)C(NC(=O)CC)(Nc1ccccc1F)C(F)(F)F (stereo unspecified)
inactive: IGROV-1 > 100 µM | HOP-92 > 100 µM | MOLT-4 > 100 µM | SK-MEL-5 68.2 µM | OVCAR-4 > 100 µM | PC-3 > 100 µM | MCF7 > 100 µM | COLO 205 > 100 µM | M14 > 100 µM | SN12C > 100 µM | U-251 > 100 µM | NCI-H460 > 100 µM | KM12 > 100 µM | EKVX > 100 µM | CAKI-1 > 100 µM | Hs-578T > 100 µM

COc1ccc(/C=C/C(=O)c2ccc(Br)cc2)cc1
inactive: IGROV-1 > 100 µM | MOLT-4 59.3 µM | SK-MEL-5 > 100 µM | OVCAR-4 > 100 µM | PC-3 > 100 µM | MCF7 85.7 µM | COLO 205 > 100 µM | M14 > 100 µM | SN12C > 100 µM | 786-0 > 100 µM | U-251 > 100 µM | NCI-H460 > 100 µM | KM12 > 100 µM | HOP-62 > 100 µM | EKVX > 100 µM | CAKI-1 > 100 µM | A498 > 100 µM | Hs-578T 64.7 µM

C=CCN(C(=O)CNC(=O)C(F)(F)F)c1cc(OCc2ccccc2)c2c(c1)c(C)cn2S(=O)(=O)c1ccccc1
inactive: IGROV-1 12.1 µM | HOP-92 4.92 µM | MOLT-4 4.16 µM | SK-MEL-5 24 µM | OVCAR-4 9.16 µM | PC-3 5.96 µM | MCF7 7.57 µM | COLO 205 8.02 µM | M14 > 100 µM | SN12C > 100 µM | 786-0 > 100 µM | U-251 > 67.9 µM | NCI-H460 > 30.5 µM | KM12 17.6 µM | HOP-62 > 100 µM | EKVX 7.71 µM | CAKI-1 > 31 µM | Hs-578T > 100 µM

CC(NC(=O)c1ccccc1)NC(=O)C(C)C(=O)Nc1ccccc1 (stereo unspecified)
inactive: IGROV-1 > 100 µM | HOP-92 49.1 µM | MOLT-4 > 100 µM | SK-MEL-5 > 100 µM | OVCAR-4 > 100 µM | PC-3 > 100 µM | MCF7 > 100 µM | COLO 205 > 100 µM | M14 > 100 µM | SN12C > 100 µM | 786-0 > 100 µM | U-251 > 100 µM | NCI-H460 > 100 µM | KM12 > 100 µM | EKVX > 100 µM | CAKI-1 > 100 µM | Hs-578T 32.2 µM

CC(O)=C1C(=O)CCC1=O
inactive: IGROV-1 > 100 µM | HOP-92 > 100 µM | MOLT-4 > 100 µM | SK-MEL-5 > 100 µM | OVCAR-4 > 100 µM | PC-3 > 100 µM | MCF7 > 100 µM | COLO 205 > 100 µM | M14 > 100 µM | SN12C > 100 µM | U-251 > 100 µM | NCI-H460 > 100 µM | KM12 > 100 µM | HOP-62 > 100 µM | EKVX > 100 µM | CAKI-1 > 100 µM | Hs-578T > 100 µM
